The values below come from a melting point compilation (Tetko et al.).

By melting point is commonly meant the temperature of the solid-liquid transition.

In turn, `O=C(O)c1c(O)cc(=O)n2c1CCC2` returned a melting point of 236 to 238 °C.

Turning to `CC(C)(C)c1cc(C(=O)O)cc(C(=O)O)c1`, the melting point fell in the range of 300 to 302 °C.

For `CC1(C2CC2)NC(=O)N(CC(=O)O)C1=O` (stereo not drawn), the melting point lay in the range of 170 to 172 °C.

In the case of `O=Cc1ccc(Cl)nc1`, the melting point was in the range of 75 to 77 °C.

`O=C(O)Cc1cccc(OCc2cccnc2)c1` came in with a melting point of 139 to 141 °C.

In turn, `Cc1cc(S(C)(=O)=O)c(C)c(S(=O)(=O)Cl)c1` yielded a melting point of 122 to 124 °C.

Molecule `COc1cc(C)c(CSCC(=O)O)cc1OC` came in with a melting point of 63 to 65 °C.

Regarding `CCOC(=O)c1cnn(-c2ccc(C(=O)O)cc2)c1C`, the melting point fell in the range of 201 to 203 °C.

`O=C(O)c1cnn(Cc2ccccc2Cl)c1` showed a melting point of 144 to 146 °C.

Turning to `CCOC(=O)c1cc2c(C)cc(C)cc2[nH]1`, the melting point was 119 to 121 °C.

As for `O=C(O)c1cc(-c2cccc(Br)c2)nc2ccccc12`, the melting point was in the range of 215 to 217 °C.

Regarding `O=C(O)c1cnc(-c2ccc(Cl)s2)s1`, the melting point fell in the range of 235 to 237 °C.

On to `Oc1cccc(-c2cn[nH]c2)c1`, for which the melting point is 218 to 220 °C.

`Clc1ccc(Br)cc1CBr` displayed a melting point of 71 to 73 °C.

`COc1ccc(C#N)cc1C` yielded a melting point of 49 to 51 °C.

The molecule `Nc1ccc(N2CCOC2=O)cc1` yielded a melting point of 149 to 151 °C.

Molecule `NCC(=O)Nc1cccc2ncccc12` gave a melting point of 128 to 130 °C.

As to `COc1ccc(-c2cc(C(=O)O)c3sc(N4CCCCC4)nc3n2)cc1OC`, the melting point was in the range of 284 to 286 °C.

For `CCCn1c(=O)[nH]c2ccccc21`, the melting point lay within 96 to 100 °C.

In turn, `O=C1CN(Cc2ccccc2)CCN1` had a melting point of 150 to 152 °C.

In turn, `N#CCC(=O)NCC1CCCO1` (stereo not drawn) came in with a melting point of 90 to 94 °C.

Molecule `O=C(O)c1cccn1Cc1ccccn1` gave a melting point of 172 to 174 °C.

In the case of `CCOc1ccc(Br)cc1S(N)(=O)=O`, the melting point lay in the range of 143 to 145 °C.

Molecule `Nc1ccc2[nH]nc(N)c2c1` displayed a melting point of 157 to 159 °C.

`CCCC(C)(NC(=O)OCc1ccccc1)C(=O)O` (stereo not drawn): the melting point was in the range of 103 to 105 °C.

The molecule `COCCOc1ccc(-n2nc(C)c(C(=O)O)n2)cc1` returned a melting point of 157 to 159 °C.

`Cc1cnn(CCC(=O)O)c1` came in with a melting point of 94 to 96 °C.

In turn, `CN1CCCCC/C1=N/S(=O)(=O)c1ccc(N)cc1` returned a melting point of 223 to 225 °C.

On to `N#CCc1nc(-c2ccc(C#N)cc2)cs1`, for which the melting point is 177 to 179 °C.

Molecule `CC(CS(C)(=O)=O)NC1CC1` (stereo not drawn) gave a melting point of 39 to 41 °C.

Molecule `CC(C)Cn1cnc(S(N)(=O)=O)c1` showed a melting point of 144 to 146 °C.

The molecule `O=C(Nc1ccccc1C(=O)O)c1ccc(Oc2ccccc2)cc1` returned a melting point of 189 to 191 °C.

Molecule `O=c1[nH]nc(-c2ccco2)o1` showed a melting point of 111 to 113 °C.

In turn, `O=C(O)c1cccc([N+](=O)[O-])c1Br` gave a melting point of 184 to 186 °C.

Turning to `CC(O)c1cc(Cl)ccc1Cl` (stereo not drawn), the melting point fell in the range of 60 to 64 °C.

In turn, `Cc1cc(CCC(=O)O)c(C)s1` had a melting point of 57 to 59 °C.

In turn, `Cc1cc(S(N)(=O)=O)c(C)cc1Br` registered a melting point of 207 to 209 °C.

In turn, `O=C(O)C1CCCCN1S(=O)(=O)c1ccc(Br)cc1` (stereo not drawn) displayed a melting point of 133 to 135 °C.

`CN(C=O)c1ccc(C(=O)CCl)cc1` came in with a melting point of 96 to 98 °C.

The molecule `CC(C)(C)OC(=O)N1CCCCCC1C(N)=NO` (stereo not drawn) gave a melting point of 150 to 152 °C.

Consider `COc1ccc(C2CCN2S(=O)(=O)c2ccc(C)cc2)cc1` (stereo not drawn), for which the melting point was in the range of 102 to 104 °C.

Molecule `O=Cc1cc(C23CC4CC(CC(C4)C2)C3)n[nH]1` came in with a melting point of 134 to 136 °C.

In turn, `CCCCC1CCC(C(=O)CC#N)CC1` (stereo not drawn) came in with a melting point of 52 to 54 °C.

`COC(=O)c1ccc(C(F)(F)F)cc1SC`: the melting point is 49 to 51 °C.

`O=C(O)c1sccc1-c1ccccc1` yielded a melting point of 206 to 208 °C.

`Cn1cc(S(=O)(=O)Cl)cc1C(=O)O`: the melting point lay within 164 to 166 °C.

`O=C(O)C(Oc1ccc(F)cc1Cl)c1ccccc1` (stereo not drawn) had a melting point of 134 to 136 °C.

As to `CC(C)NC(N)=O`, the melting point was in the range of 154 to 156 °C.

With `CC(=O)c1ccc(-n2ccnc2C)cc1`, the melting point was in the range of 132 to 134 °C.

Take `COc1ccc(NC(=O)OCC(F)(F)F)cn1`: the melting point lay within 86 to 88 °C.

Molecule `Nc1c(-c2ccccc2)ncn1N` registered a melting point of 126 to 128 °C.

The molecule `O=C(O)CCCCCc1ccc(O)cc1` came in with a melting point of 104 to 106 °C.

In turn, `O=[N+]([O-])c1ccc(Cn2ccnc2)cc1` displayed a melting point of 39 to 41 °C.

`CC(=O)c1cc(C)cc(C(C)=O)c1O` displayed a melting point of 50 to 52 °C.

As to `N#CCc1cc(Cl)c2c(c1)OCCO2`, the melting point lay within 102 to 104 °C.

`O=C(O)c1sc(Cl)nc1Cl` had a melting point of 164 to 166 °C.

`O=C(O)c1ccc(NS(=O)(=O)c2cccs2)cc1` gave a melting point of 226 to 228 °C.

`CC1(c2ccncc2)NC(=O)NC1=O` (stereo not drawn): the melting point was 231 to 233 °C.

`Cc1nc(N)nc(Cl)c1Br` yielded a melting point of 189 to 191 °C.

With `COc1cc(N)ccc1NC(C)=O`, the melting point fell in the range of 121 to 123 °C.

In turn, `CCc1ncsc1C(=O)O` had a melting point of 193 to 195 °C.

The molecule `Cc1ccc(C(=O)O)cc1S(=O)(=O)NCC#N` displayed a melting point of 212 to 214 °C.

Consider `O=c1[nH]ncc2cccnc12`, for which the melting point was 309 to 311 °C.

For `Cc1c(C(=O)O)nnn1-c1ccccc1Cl`, the melting point lay in the range of 165 to 167 °C.

In turn, `Cc1c(-c2csc(N)n2)sc2ccccc12` returned a melting point of 170 to 172 °C.

Turning to `Cc1nc2sccn2c1C(N)=S`, the melting point lay within 232 to 234 °C.

Take `Nc1nc2nc(-c3ccccc3)cc(C(F)(F)F)c2s1`: the melting point lay in the range of 234 to 236 °C.

Turning to `Cc1cc2ncc(C=O)cn2n1`, the melting point fell in the range of 149 to 151 °C.

Turning to `O=C(O)CC1=NN(c2ccc(Cl)cc2Cl)C(=O)C1`, the melting point fell in the range of 179 to 181 °C.

`N#Cc1ccc(OCC(=O)O)c(Cl)c1` displayed a melting point of 178 to 180 °C.

`CCOc1cccc(C=O)n1` had a melting point of 55 to 57 °C.

`O=Cc1c(Cl)cccc1OC(F)F` came in with a melting point of 37 to 39 °C.

Regarding `CN1CCCN(c2nc3ccccc3cc2CO)CC1`, the melting point was in the range of 95 to 97 °C.

As for `COc1cc(N)ccc1S(N)(=O)=O`, the melting point is 241 to 243 °C.

Take `CC(CC(=O)c1cccc(F)c1)C(=O)O` (stereo not drawn): the melting point was 96 to 98 °C.

As for `Cc1nc(-c2c(C)c(C)nn(C)c2=O)sc1C(=O)O`, the melting point lay within 239 to 241 °C.

Consider `Clc1cc(N2CCSCC2)ncn1`, for which the melting point was in the range of 134 to 136 °C.

Regarding `OCc1cccc(OCC(F)(F)F)c1`, the melting point lay within 30 to 32 °C.

With `Cn1cc([N+](=O)[O-])cc1C(=O)O`, the melting point lay in the range of 199 to 201 °C.

On to `NC(Cc1ccc2c(c1)OCO2)C(=O)O` (stereo not drawn), for which the melting point is 249 to 251 °C.

With `COc1cc(CCl)ccc1OCc1cccc(C#N)c1`, the melting point lay in the range of 95 to 97 °C.

Molecule `CC1CCN(CC(=O)O)CC1` returned a melting point of 147 to 149 °C.

Take `O=C(O)Cc1cccc(OCC(F)(F)F)c1`: the melting point is 99 to 101 °C.

With `ClCc1nnc(-c2c(Cl)cccc2Cl)o1`, the melting point lay in the range of 46 to 48 °C.

With `Cn1c(O)nnc1S`, the melting point lay within 216 to 218 °C.

As for `COc1ccc(C(=O)c2ccc(OC)cc2OC)cc1`, the melting point lay within 69 to 73 °C.

`COc1ccc(Cn2[nH]ccc2=N)c(OC)c1` came in with a melting point of 76 to 78 °C.

Consider `CC(O)C(NS(=O)(=O)c1ccc(Cl)cc1)C(=O)O` (stereo not drawn), for which the melting point is 179 to 181 °C.

`Cc1[nH]c(C(=O)O)c(C)c1C` came in with a melting point of 80 to 82 °C.

Molecule `O=Cc1ccc(-n2ccnc2)c(F)c1` displayed a melting point of 69 to 71 °C.

In turn, `Cc1cc(O)cc(=O)n1CCC(=O)O` yielded a melting point of 172 to 174 °C.

In turn, `COc1ccc(OC)c(-c2csc(N)n2)c1` had a melting point of 113 to 115 °C.

The molecule `Cc1ccc(C(=O)NC2CC2)cc1N` came in with a melting point of 114 to 116 °C.

As to `COC(=O)C(CC(C)C)NC(N)=O` (stereo not drawn), the melting point was in the range of 68 to 70 °C.

In turn, `C#Cc1cccc(NCC(=O)NC)c1` displayed a melting point of 127 to 129 °C.

With `Nc1ccc2c(c1)COC2`, the melting point fell in the range of 89 to 91 °C.

In turn, `CCc1ccc(Nc2nnc(S)s2)cc1` yielded a melting point of 151 to 153 °C.

As for `COC(=O)c1cc(Br)cc(N)c1Cl`, the melting point was in the range of 73 to 75 °C.

`CCc1ccc(N)cc1S(N)(=O)=O`: the melting point fell in the range of 136 to 138 °C.

For `O=C(O)C1CCN(c2cncc3nnnn23)CC1`, the melting point is 159 to 161 °C.

Molecule `Cc1nc(N2CCCCC2)sc1C=O` showed a melting point of 113 to 115 °C.

`COc1ccc(C(C)=O)cc1Cn1cccn1` returned a melting point of 80 to 82 °C.

`O=C(O)c1ncc(Cl)cc1Cl` returned a melting point of 139 to 141 °C.

Molecule `Nc1nc(Cl)ccc1[N+](=O)[O-]` had a melting point of 188 to 193 °C.

`COc1ccc(S(=O)(=O)Cl)cc1NC(C)=O` showed a melting point of 145 to 147 °C.

The molecule `Nc1nonc1-c1ccccc1` returned a melting point of 96 to 98 °C.

For `N#Cc1cc(C(=O)O)c(N)[nH]c1=O`, the melting point is 250 to 252 °C.

As to `O=C(O)/C=C/c1ccc(Br)s1`, the melting point is 209 to 211 °C.

The molecule `NC(=S)c1cnc2ccccn12` registered a melting point of 214 to 216 °C.

Consider `Fc1cccc2c(CBr)csc12`, for which the melting point lay in the range of 74 to 76 °C.

`COc1ccc(-c2nnc(S)[nH]2)c(OC)c1` had a melting point of 250 to 252 °C.

For the molecule `COc1ccc(C(C)C(=O)O)cc1` (stereo not drawn), the melting point fell in the range of 52 to 54 °C.

`Cc1c(C(=O)O)nnn1-c1cccc(Cl)c1` gave a melting point of 179 to 181 °C.

On to `O=C(O)c1ccc(Cl)c(NC(=O)c2cccs2)c1`, for which the melting point fell in the range of 166 to 168 °C.

`ClCc1coc(-c2cccc(Cl)c2)n1` displayed a melting point of 76 to 78 °C.

In the case of `Nc1cc(F)c(F)cc1Br`, the melting point lay within 47 to 49 °C.

In the case of `COc1ccc(-c2nc(C(=O)O)cs2)cc1OC`, the melting point lay within 204 to 206 °C.

For the molecule `Sc1nnc(Nc2ccccc2Cl)s1`, the melting point lay in the range of 174 to 176 °C.

The molecule `Cc1ccc2ccccc2c1S(=O)(=O)Cl` showed a melting point of 76 to 78 °C.

With `Cc1ccc(N)c(-c2nc(C3CC3)no2)c1`, the melting point is 87 to 89 °C.

Molecule `Cc1cc(Cl)cc2cc(C#N)oc12` displayed a melting point of 113 to 115 °C.

`O=C(O)c1nn(-c2ccc(F)cc2)ccc1=O` showed a melting point of 240 to 242 °C.

Molecule `O=Cc1csc(-c2ccc(F)cc2)n1` returned a melting point of 99 to 101 °C.
